These results are taken from PubChem BioAssay AID330 (DTP/NCI, 2004).

Structures are written as SMILES. Where “and” joins values, the source holds several entries; their conditions need not be identical. Equal entries are not always repeated. Toxic doses and inconclusive results are not listed.

This test concerns P388 leukemia ip, CD2F1 mice, survival T/C. Nature of the test: NCI In Vivo Anticancer Drug Screen. Data for tumor model P388 Leukemia (intraperitoneal) in CD2F1 (CDF1) mice. To be noted: endpoint: median survival time, higher = longer survival. Summed up:
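Mice carrying the transplanted tumor received test compound or vehicle. Survival was recorded in each group, and the value is the treated-group measurement divided by that of the vehicle-treated control group.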

Where [1] appears, read: dose: 60.0 mg/kg/injection, schedule: Q01DX005 (ip), vehicle: Klucel (hydroxypropylcellulose) (HPC).
The mark [2] stands for this setting: dose: 120.0 mg/kg/injection, schedule: Q01DX005 (ip), vehicle: Klucel (hydroxypropylcellulose) (HPC).
Setting [3] is: dose: 240.0 mg/kg/injection, schedule: Q01DX005 (ip), vehicle: Klucel (hydroxypropylcellulose) (HPC).
Setting [4] is: dose: 60.0 mg/kg/injection, schedule: Q01DX005 (ip), vehicle: saline with Tween-80.
Setting [5] is: dose: 120.0 mg/kg/injection, schedule: Q01DX005 (ip), vehicle: saline with Tween-80.
Where [6] appears, read: dose: 240.0 mg/kg/injection, schedule: Q01DX005 (ip), vehicle: saline with Tween-80.
Where [7] appears, read: dose: 6.25 mg/kg/injection, schedule: Q01DX005 (ip), vehicle: saline.
[8] abbreviates: dose: 12.5 mg/kg/injection, schedule: Q01DX005 (ip), vehicle: saline.
Where [9] appears, read: dose: 25.0 mg/kg/injection, schedule: Q01DX005 (ip), vehicle: saline.
Setting [10] is: dose: 50.0 mg/kg/injection, schedule: Q01DX005 (ip), vehicle: saline.
Where [11] appears, read: dose: 50.0 mg/kg/injection, schedule: Q01DX005 (ip), vehicle: saline with Tween-80.
Where [12] appears, read: dose: 100.0 mg/kg/injection, schedule: Q01DX005 (ip), vehicle: saline with Tween-80.
Where [13] appears, read: dose: 200.0 mg/kg/injection, schedule: Q01DX005 (ip), vehicle: saline with Tween-80.
Setting [14] is: dose: 100.0 mg/kg/injection, schedule: Q01DX001 (ip), vehicle: saline with Tween-80.
[15] abbreviates: dose: 200.0 mg/kg/injection, schedule: Q01DX001 (ip), vehicle: saline with Tween-80.
Where [16] appears, read: dose: 400.0 mg/kg/injection, schedule: Q01DX001 (ip), vehicle: saline with Tween-80.
[17] abbreviates: dose: 25.0 mg/kg/injection, schedule: Q01DX009 (ip), vehicle: saline.
[18] abbreviates: dose: 50.0 mg/kg/injection, schedule: Q01DX009 (ip), vehicle: saline.
[19] abbreviates: dose: 50.0 mg/kg/injection, schedule: Q01DX009 (ip), vehicle: saline with Tween-80.
Where [20] appears, read: dose: 50.0 mg/kg/injection, schedule: Q04DX003 (ip), vehicle: saline with Tween-80.
Where [21] appears, read: dose: 100.0 mg/kg/injection, schedule: Q01DX009 (ip), vehicle: saline with Tween-80.
Setting [22] is: dose: 100.0 mg/kg/injection, schedule: Q04DX003 (ip), vehicle: saline with Tween-80.

As for `COc1ccc2c3c([nH]c2c1)C1CC2C(CC(O)C(OC)C2C(=O)O)CN1CC3` (centres undefined), the T/C under setting [1] is 100 % of control, the T/C under setting [2] is 100 % of control and the T/C under setting [3] is 106 % of control.
As to `CN(Nc1ccnc(=O)[nH]1)c1ccccc1`, the T/C under setting [4] is 105 % of control, the T/C under setting [5] was 102 % of control and the T/C under setting [6] was 93 % of control.
For the compound `CC(ON)C(=O)O` (centres undefined), the T/C reads like this: under setting [7], 96 % of control; under setting [8], 102 % of control; under setting [9], 102 % of control; under setting [10], 99 % of control.
In the case of `CCCCCCCN(CCCCCCC)CC(O)c1cc2ccccc2c2cc(Br)ccc12` (centres undefined), the T/C reads like this: under setting [11], 109 % of control; under setting [12], 104 % of control; under setting [13], 99 % of control.
As for `c1nc2c3c4c(sc3ncn2n1)CCCC4`, the T/C reads like this: (dose: 50.0 mg/kg/injection, schedule: Q01DX005 (ip), vehicle: Klucel (hydroxypropylcellulose) (HPC)) 98 % of control; (dose: 100.0 mg/kg/injection, schedule: Q01DX005 (ip), vehicle: Klucel (hydroxypropylcellulose) (HPC)) 106 % of control; (dose: 200.0 mg/kg/injection, schedule: Q01DX005 (ip), vehicle: Klucel (hydroxypropylcellulose) (HPC)) 91 % of control.
Turning to `COc1cc(NCC(C)(O)CN2CCCC(C)C2C)c2ncccc2c1` (centres undefined), the T/C runs as follows: under setting [8], 97 % of control; under setting [9], 101 % of control; under setting [10], 112 % of control.
Consider `ClC(Cl)C1OCCCO1`, for which the T/C reads like this: (dose: 60.0 mg/kg/injection, schedule: Q01DX005 (ip), vehicle: saline) 100 % of control; (dose: 120.0 mg/kg/injection, schedule: Q01DX005 (ip), vehicle: saline) 99 % of control; (dose: 240.0 mg/kg/injection, schedule: Q01DX005 (ip), vehicle: saline) 96 % of control.
For the compound `COC(=O)C1=C(C(=O)OC)N2c3ccccc3-n3c(-c4ccccc4)cc(OC)c3C2(C)C(C(=O)OC)=C1C(=O)OC` (centres undefined), the T/C reads like this: under setting [14], 99 % of control; under setting [15], 99 % of control; under setting [16], 92 % of control.
In the case of `COC(=O)c1nc(N)nc(C(=O)OC)c1C(=O)C(C)(C)C`, the T/C was 96 % of control under setting [4] and 96 % of control under setting [5].
Regarding `O=C(O)Cc1cn2cc(Br)ccc2n1`, the T/C was 105 % of control under setting [14], 109 % of control under setting [15] and 104 % of control under setting [16].
With `O=[C-]c1ccccc1[C-]=O.[I][Ni+2][I]`, the T/C was 94 % of control under setting [7], 94 % of control under setting [8] and 110 % of control under setting [9].
As for `COc1cccc(/C=C2/C(=O)N(c3ccccc3)N=C2C)c1OC`, the T/C is 101 % of control under setting [1], 100 % of control under setting [2] and 110 % of control under setting [3].
In the case of `O=C1C(Cl)=C(NCCCN(CCO)CCO)C(=O)c2ccccc21`, the T/C is 100 % of control (dose: 12.5 mg/kg/injection, schedule: Q01DX009 (ip), vehicle: saline); 107 % of control and 88 % of control under setting [17]; 107 % of control and 108 % of control under setting [18].
Regarding `CC(=O)OCC1OC(Sc2ccc([N+](=O)[O-])cc2)C(OC(C)=O)C(OC(C)=O)C1OC(C)=O` (centres undefined), the T/C is, setting by setting: (dose: 15.0 mg/kg/injection, schedule: Q01DX005 (ip), vehicle: saline with Tween-80) 100 % of control; (dose: 30.0 mg/kg/injection, schedule: Q01DX005 (ip), vehicle: saline with Tween-80) 98 % of control; under setting [4], 91 % of control.
Regarding `[N-]=[N+]=Nc1cccc(Nc2c3ccccc3nc3ccccc23)c1`, the T/C by setting is: (dose: 50.0 mg/kg/injection, schedule: Q01DX009 (ip), vehicle: Klucel (hydroxypropylcellulose) (HPC)) 98 % of control; (dose: 100.0 mg/kg/injection, schedule: Q01DX009 (ip), vehicle: Klucel (hydroxypropylcellulose) (HPC)) 100 % of control; (dose: 200.0 mg/kg/injection, schedule: Q01DX009 (ip), vehicle: Klucel (hydroxypropylcellulose) (HPC)) 107 % of control.
As for `Cc1cc(OCc2nc(N)nc(N)c2-c2ccc(Cl)c(Cl)c2)ccc1NS(=O)(=O)c1cccc(S(=O)(=O)F)c1`, the T/C by setting is: (dose: 176.0 mg/kg/injection, schedule: Q04DX003 (ip), vehicle: saline) 122 % of control; (dose: 400.0 mg/kg/injection, schedule: Q04DX003 (ip), vehicle: saline) 150 % of control.
For `O=C1Sc2ccccc2Cn2cccc21`, the T/C is 108 % of control under setting [4], 108 % of control under setting [5] and 123 % of control under setting [6].
Turning to `CCOC(CCC1=NC(C)(C)CC(C)O1)OCC` (centres undefined), the T/C runs as follows: (dose: 100.0 mg/kg/injection, schedule: Q01DX001 (ip), vehicle: saline sonified) 110 % of control; (dose: 200.0 mg/kg/injection, schedule: Q01DX001 (ip), vehicle: saline sonified) 100 % of control; (dose: 400.0 mg/kg/injection, schedule: Q01DX001 (ip), vehicle: saline sonified) 90 % of control.
With `CCc1nc(N)nc(N)c1-c1ccc(Cl)c(NC(C)=O)c1`, the T/C (dose: 3.13 mg/kg/injection, schedule: Q01DX009 (ip), vehicle: distilled water + Tween-80) was 94 % of control; the T/C (dose: 6.25 mg/kg/injection, schedule: Q01DX009 (ip), vehicle: distilled water + Tween-80) was 94 % of control; the T/C (dose: 12.5 mg/kg/injection, schedule: Q01DX009 (ip), vehicle: distilled water + Tween-80) was 94 % of control; the T/C (dose: 25.0 mg/kg/injection, schedule: Q01DX009 (ip), vehicle: distilled water + Tween-80) is 88 % of control; the T/C (dose: 50.0 mg/kg/injection, schedule: Q01DX009 (ip), vehicle: distilled water + Tween-80) was 91 % of control.
In the case of `O=C1C(=O)c2ccc3c(c2-c2cc4c(cc21)OCO4)OCO3`, the T/C is 86 % of control under setting [1] and 87 % of control under setting [2].
`CN(C)CCC(=O)/C=C\c1ccccc1`: the T/C by setting is: under setting [17], 107 % of control; under setting [18], 108 % of control.
`O=C(O)/C=C/C(=O)OCCBr`: the T/C by setting is: under setting [19], 104 % of control; under setting [20], 120 % of control; under setting [21], 100 % of control; under setting [22], 120 % of control; (dose: 200.0 mg/kg/injection, schedule: Q01DX009 (ip), vehicle: saline with Tween-80) 95 % of control; (dose: 200.0 mg/kg/injection, schedule: Q04DX003 (ip), vehicle: saline with Tween-80) 100 % of control.
In the case of `CC(=O)Oc1ccc(/C=N\N(C)C)cc1`, the T/C runs as follows: under setting [18], 102 % of control; (dose: 100.0 mg/kg/injection, schedule: Q01DX009 (ip), vehicle: saline) 95 % of control.
Regarding `CCOC(=O)CC1(C)SCCN1C(=O)OCC` (centres undefined), the T/C was 102 % of control (dose: 25.0 mg/kg/injection, schedule: Q01DX005 (ip), vehicle: saline with Tween-80); 98 % of control under setting [11]; 91 % of control under setting [12]; 105 % of control under setting [13].
For the compound `CC1(C)N=C(N)N=C(N)N1c1ccc(OCC(=O)Nc2ccccc2)c(Cl)c1`, the T/C (dose: 25.0 mg/kg/injection, schedule: Q01DX009 (ip), vehicle: saline with Tween-80) was 100 % of control; the T/C (dose: 25.0 mg/kg/injection, schedule: Q04DX003 (ip), vehicle: saline with Tween-80) is 100 % of control; the T/C under setting [19] was 104 % of control; the T/C under setting [20] is 100 % of control; the T/C under setting [21] is 109 % of control; the T/C under setting [22] is 113 % of control.
As to `N#CC1CCCC(CCc2ccccc2)(c2ccccc2)C1=N` (centres undefined), the T/C (dose: 50.0 mg/kg/injection, schedule: Q01DX001 (ip), vehicle: Klucel (hydroxypropylcellulose) (HPC)) was 100 % of control; the T/C (dose: 100.0 mg/kg/injection, schedule: Q01DX001 (ip), vehicle: Klucel (hydroxypropylcellulose) (HPC)) was 99 % of control and 101 % of control; the T/C (dose: 200.0 mg/kg/injection, schedule: Q01DX001 (ip), vehicle: Klucel (hydroxypropylcellulose) (HPC)) is 91 % of control; the T/C (dose: 400.0 mg/kg/injection, schedule: Q01DX001 (ip), vehicle: Klucel (hydroxypropylcellulose) (HPC)) is 102 % of control and 92 % of control.
